How the values were obtained:
crabgrass = experiment: Test A pre-/postemergence greenhouse test; assay type: in vivo, Digitaria sanguinalis; details: for Plant response rating, Crabgrass, Large: 0 to 100 scale where 0 is no effect and 100 is complete control; for Crabgrass, Large plant response rating: 0 to 100 scale
In short: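 Pots of loam–sand soil sown with the test species are sprayed preemergence on the soil surface; emerged seedlings (1–2 leaves, 2–10 cm) are sprayed postemergence at the same time. The vehicle is a non-phytotoxic solvent mixture with surfactant. Injury is scored visually after ~10 d in greenhouse.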

kochia = experiment: Test C pre-/postemergence test; assay type: in vivo, Kochia scoparia
In short: (§1)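 Compounds in a non-phytotoxic solvent with surfactant applied preemergence to seeded pots and, at the same time, postemergence to plants 2–18 cm tall (1- to 4-leaf stage). Paddy tests: pots flooded to 3 cm, compound applied into the water, depth held throughout.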

yellow nutsedge = experiment: Test C pre-/postemergence test; assay type: in vivo, Cyperus esculentus
In short: as §1

common ragweed [1] = experiment: Test C pre-/postemergence test; assay type: in vivo, Ambrosia elation
In short: as §1

bermudagrass = experiment: Test F preemergence test; assay type: in vivo, Cynodon dactylon; details: scale 0 to 100
From the text: (§2) Seeds of plant species selected from bermudagrass (Cynodon dactylon), Surinam grass (Brachiaria decumbens), large crabgrass (Digitaria sanguinalis), green foxtail (Setaria viridis), goosegrass (Eleusine indica), johnsongrass (Sorghum halepense), kochia (Kochia scoparia), pitted morningglory (Ipomoea lacunosa), purple nutsedge (Cyperus rotundus), common ragweed (Ambrosia elation), mustard (Brassica nigra), guineagrass (Panicum maximum), […] (Paspalum dilatatum), barnyardgrass (Echinochloa crus-galli), southern sandbur (Cenchrus echinatus), common sowthistle (Sonchus oleraceous), prickly […] spinosa), Italian ryegrass (Lolium multiflorum), common purslane (Portulaca oleracea), broadleaf signalgrass (Brachiaria platyphylla), common groundsel (Senecio vulgaris), common chickweed (Stellaria media), Virginia dayflower (Commelina virginica), annual bluegrass (Poa annua), naked crabgrass (Digitaria nuda), […] cochinchinensis), quackgrass (Elytrigia repens), Canada horseweed (Conyza canadensis), field bindweed (Convolvulus arvensis), […] (Bidens bipinnata), common mallow (Malva sylvestris), Russian thistle (Salsola kali), and sugarcane (Saccharum officinarum) were planted and treated preemergence with test chemicals formulated in a non-phytotoxic solvent mixture which included a surfactant. At a different time, sugarcane was treated with postemergence applications of some of the test chemicals formulated in the same manner. Plants were approximately 3- to 4-leaf stage for the postemergence treatments. Treated plants and controls were maintained in a greenhouse for 14 to 21 days, after which time all species were compared to controls and visually evaluated. […] A dash (-) response means no test result.

green foxtail = experiment: Test F preemergence test; assay type: in vivo, Setaria viridis; details: scale 0 to 100
From the text: as §2

goosegrass = experiment: Test F preemergence test; assay type: in vivo, Eleusine indica; details: scale 0 to 100
From the text: as §2

purple nutsedge = experiment: Test F preemergence test; assay type: in vivo, Cyperus rotundus; details: scale 0 to 100
From the text: as §2

common ragweed [2] = experiment: Test F preemergence test; assay type: in vivo, Ambrosia elation; details: scale 0 to 100
From the text: as §2

prickly sida = experiment: Test F preemergence test; assay type: in vivo, Sida spinosa; details: scale 0 to 100
From the text: as §2

broadleaf signalgrass = experiment: Test F preemergence test; assay type: in vivo, Brachiaria platyphylla; details: scale 0 to 100
From the text: as §2

naked crabgrass = experiment: Test F preemergence test; assay type: in vivo, Digitaria nuda; details: scale 0 to 100
From the text: as §2

itchgrass = experiment: Test F preemergence test; assay type: in vivo, Rottboellia cochinchinensis; details: scale 0 to 100
From the text: as §2

[3] = 62 g ai/ha, Preemergence, scale 0 to 100
[4] = 125 g ai/ha, preemergence, scale 0 (no effect) to 100 (complete control)
[5] = Postemergence, 125 g ai/ha, scale 0 to 100, 0 no effect, 100 complete control
[6] = Postemergence, 250 g ai/ha, scale 0 to 100, 0 no effect, 100 complete control
[7] = Preemergence, 31 g ai/ha, scale 0 to 100 (0 no effect, 100 complete control)
[8] = preemergence, 250 g ai/ha, scale 0 (no effect) to 100 (complete control)

## Cn1nc(C(F)(F)C(F)(F)F)c(C[S+]([O-])c2cccc[n+]2[O-])c1OCC(F)(F)F (stereo not shown) [Compound 79]
crabgrass; Postemergence, 125 g ai/ha
  Plant response rating, Crabgrass, Large: 70
crabgrass; Postemergence, 500 g ai/ha, 0 is no effect, 100 is complete control
  Crabgrass, Large plant response rating: 90
crabgrass; Preemergence, 125 g ai/ha, 0 no effect, 100 complete control
  Crabgrass, Large plant response rating: 70
crabgrass; Preemergence, 500 g ai/ha
  Plant response rating, Crabgrass, Large: 100
kochia; [3]
  Kochia plant response rating: 100
kochia; [4]
  Kochia plant response rating: 100
kochia; Postemergence, 31 g ai/ha
  Plant response rating (0 to 100), Kochia: 0
kochia; Postemergence, 62 g ai/ha
  Plant response rating (0 to 100), Kochia: 0
kochia; [5]
  Plant response rating, Kochia: 0
kochia; [6]
  Plant response rating, Kochia: 0
kochia; [7]
  Plant response rating, Kochia: 100
kochia; [8]
  Kochia plant response rating: 100
Yellow nutsedge; [3]
  Nutsedge, Yellow plant response rating: 75
Yellow nutsedge; [4]
  Nutsedge, Yellow plant response rating: 90
Yellow nutsedge; Postemergence, 31 g ai/ha
  Plant response rating (0 to 100), Nutsedge, Yellow: 0
Yellow nutsedge; Postemergence, 62 g ai/ha
  Plant response rating (0 to 100), Nutsedge, Yellow: 0
Yellow nutsedge; [5]
  Plant response rating, Nutsedge, Yellow: 0
Yellow nutsedge; [6]
  Plant response rating, Nutsedge, Yellow: 10
Yellow nutsedge; [7]
  Plant response rating, Nutsedge, Yellow: 0
Yellow nutsedge; [8]
  Nutsedge, Yellow plant response rating: 100
Common ragweed [1]; [3]
  Ragweed plant response rating: 50
Common ragweed [1]; [4]
  Ragweed plant response rating: 100
Common ragweed [1]; Postemergence, 31 g ai/ha
  Plant response rating (0 to 100), Ragweed: 0
Common ragweed [1]; Postemergence, 62 g ai/ha
  Plant response rating (0 to 100), Ragweed: 40
Common ragweed [1]; [5]
  Plant response rating, Ragweed: 45
Common ragweed [1]; [6]
  Plant response rating, Ragweed: 50
Common ragweed [1]; [7]
  Plant response rating, Ragweed: 50
Common ragweed [1]; [8]
  Ragweed plant response rating: 100
bermudagrass; 16 g ai/ha, preemergence
  Plant response rating, Bermudagrass: 10
bermudagrass; 62 g ai/ha, Preemergence
  Bermudagrass plant response rating: 100
bermudagrass; 125 g ai/ha, preemergence
  Bermudagrass plant response rating: 100
bermudagrass; Preemergence, 31 g ai/ha
  Plant response rating, Bermudagrass: 65
Green foxtail; 16 g ai/ha, preemergence
  Plant response rating, Foxtail, Green: 20
Green foxtail; 62 g ai/ha, Preemergence
  Foxtail, Green plant response rating: 90
Green foxtail; 125 g ai/ha, preemergence
  Foxtail, Green plant response rating: 100
Green foxtail; Preemergence, 31 g ai/ha
  Plant response rating, Foxtail, Green: 60
goosegrass; 16 g ai/ha, preemergence
  Plant response rating, Goosegrass: 20
goosegrass; 62 g ai/ha, Preemergence
  Goosegrass plant response rating: 98
goosegrass; 125 g ai/ha, preemergence
  Goosegrass plant response rating: 100
goosegrass; Preemergence, 31 g ai/ha
  Plant response rating, Goosegrass: 75
Purple nutsedge; 16 g ai/ha, preemergence
  Plant response rating, Purple Nutsedge: 0
Purple nutsedge; 62 g ai/ha, Preemergence
  Purple Nutsedge plant response rating: 0
Purple nutsedge; 125 g ai/ha, preemergence
  Purple Nutsedge plant response rating: 60
Purple nutsedge; Preemergence, 31 g ai/ha
  Plant response rating, Purple Nutsedge: 0
Common ragweed [2]; 16 g ai/ha, preemergence
  Plant response rating, Ragweed: 95
Common ragweed [2]; 125 g ai/ha, preemergence
  Ragweed plant response rating: 100
Common ragweed [2]; Preemergence, 62 g ai/ha
  Plant response rating, Ragweed: 100
Common ragweed [2]; Preemergence, 31 g ai/ha
  Plant response rating, Ragweed: 100
Prickly sida; 16 g ai/ha, preemergence
  Plant response rating, Prickly Sida: 0
Prickly sida; 62 g ai/ha, Preemergence
  Prickly Sida plant response rating: 100
Prickly sida; 125 g ai/ha, preemergence
  Prickly Sida plant response rating: 100
Prickly sida; Preemergence, 31 g ai/ha
  Plant response rating, Prickly Sida: 20
Broadleaf signalgrass; 16 g ai/ha, preemergence
  Plant response rating, Signalgrass: 0
Broadleaf signalgrass; 125 g ai/ha, preemergence
  Signalgrass plant response rating: 100
Broadleaf signalgrass; Preemergence, 62 g ai/ha
  Plant response rating, Signalgrass: 30
Broadleaf signalgrass; Preemergence, 31 g ai/ha
  Plant response rating, Signalgrass: 0
Naked crabgrass; 16 g ai/ha, preemergence
  Plant response rating, Crabgrass, Naked: 0
Naked crabgrass; 62 g ai/ha, Preemergence
  Crabgrass, Naked plant response rating: 100
Naked crabgrass; 125 g ai/ha, preemergence
  Crabgrass, Naked plant response rating: 100
Naked crabgrass; Preemergence, 31 g ai/ha
  Plant response rating, Crabgrass, Naked: 40
itchgrass; 16 g ai/ha, preemergence
  Plant response rating, Itchgrass: 0
itchgrass; 62 g ai/ha, Preemergence
  Itchgrass plant response rating: 75
itchgrass; 125 g ai/ha, preemergence
  Itchgrass plant response rating: 95
itchgrass; Preemergence, 31 g ai/ha
  Plant response rating, Itchgrass: 75
